Data published in patent publication US20070037143A1, “Method for screening for protease modulators” (DIGILAB BioVisioN GmbH, priority 2005, published 2007).
Entries after “also recorded” stand apart in the source; their conditions may differ.

Key:
Assay type in all cases: in vivo
[1] = biological target: T1, DPP4 (Rattus norvegicus, UniProt P14740); experiment: DPP4 activity in plasma of rats injected with DPP4 inhibitors (G-P-4 nitroanilide substrate, 405 nm); conditions: Wistar rats, s.c., 0.3-3.2 mg/kg, 1 h after injection; FIG. 2
T1 construct: from tissue; host or cells: Wistar rats dosed in vivo; activity read in tail-vein plasma
Description: The DPP4 inhibitor AB192 (bis(4-acetamidophenyl)-1-(S)-prolylpyrrolidine-2-(R,S)-phosphonate) (J. Med. Chem., 1999, 42:1041-52) was kindly provided by Ingrid De Meester (University of Antwerp, Campus Drie Eiken, Department of Pharmaceutical Sciences, Universiteitsplein 1, B-2610 Wilrijk-Antwerpen). AB192, an irreversible inhibitor of DPP4, was used at 0.32, 1.00 and 3.2 mg/kg body weight. The control inhibitor (Contr.In.) was used at 0.3, 1.0 and 3.0 mg/kg body weight. Eight week old Wistar rats (315-320 g body weight) received either of the inhibitors (8 animals for each inhibitor concentration of each inhibitor) or were treated with vehicle (50 mM sodium phosphate buffer; pH 7.4) (4 animals). The rats received the inhibitors or vehicle by subcutaneous injection into the fat tissue of the neck using a 27-G needle. […]
Blood samples taken from the tail vein were immediately centrifuged (2000×g; 10 min at room temperature) and plasma stored at −20° C. […] The 96-well plate was read immediately using a Tecan Genios microplate reader (Tecan Deutschland GmbH, Crailsheim, Germany) and measurements were taken at 37° C. over a period of time of 1 h at a wavelength of 405 nm. From the measured values the blank signal (plasma+HEPES buffer) was subtracted and data calculated as Units/litre (U/l). […]

[2] = biological target: T1, DPP4; experiment: Panels of pairs of peptides/proteins (linear model): correlation to inhibitor concentration or to decreased DPP4 activity; conditions: for Correlation coefficient of Panel 1 + 2: panel of both peptides/proteins; for Correlation coefficient of Pep./Prot. 1: single peptide/protein 1 of the panel; for Correlation coefficient of Pep./Prot. 2: single peptide/protein 2 of the panel
Description: In addition, networks of peptides and/or proteins were calculated. This allows, for example, to identify panels of peptides and/or proteins, which enable to better reflect the biological impact of the inhibitors (FIG. 5/Table 2). Combining two peptides and/or proteins in these panels increased the reliability of the prediction (e.g. concentration of inhibitor, “before/after change in DPP4 activity”) possible by evaluating these peptide/protein panels. These panels were determined by comprehensively combining peptide and/or protein signals to pairs of peptide and/or protein signals. In a “linear model”, the signal intensities of the peptide and/or protein pairs were treated as independent variables, and the endpoint DPP4 concentration (or change in DPP4 activity) was treated as the dependent variable. The “linear model” was then calculated (e.g. with R-package, version 2.00 (R Foundation for Statistical Computing, Vienna, Austria) or S-plus, version 6.0 (Insightful AG, Reinach, Switzerland), etc.).
In addition to panels of peptides and/or proteins, surrogate networks of peptides and/or proteins can also be predicted, which peptides and/or proteins can replace each other, i.e. the peptides and/or proteins are surrogates of each other. Using this method it is, for example, possible to identify peptides and/or proteins which have the same diagnostic value. […] In addition, it is possible to choose those peptides and/or proteins of a surrogate network, which can be measured with the least effort. Both strategies can be combined to save time, resources, valuable or limited patient samples, etc. For determining these surrogate networks and peptide and/or protein panels, methods such as the methods described in PCT/EP 2005/000090 can be used.

[3] = biological target: T1, DPP4; experiment: Peptide display (RP chromatography + MALDI-MS) of rat plasma: Spearman correlation of peptide/protein signals with inhibitor concentration or before/after change in DPP4 activity; set-up: key to Correlation of mass spectrometric signal with concentration of inhibitor AB & Contr.In. A / Correlation of mass spectrometric signal with concentration of inhibitor Contr.In. C: With positive (pos.) correlation regarding the inhibitor concentration is meant that higher concentrations of inhibitor result in higher concentration of a peptide or protein
Description: The DPP4 inhibitor AB192 (bis(4-acetamidophenyl)-1-(S)-prolylpyrrolidine-2-(R,S)-phosphonate) (J. Med. Chem., 1999, 42:1041-52) was kindly provided by Ingrid De Meester (University of Antwerp, Campus Drie Eiken, Department of Pharmaceutical Sciences, Universiteitsplein 1, B-2610 Wilrijk-Antwerpen). AB192, an irreversible inhibitor of DPP4, was used at 0.32, 1.00 and 3.2 mg/kg body weight. The control inhibitor (Contr.In.) was used at 0.3, 1.0 and 3.0 mg/kg body weight. Eight week old Wistar rats (315-320 g body weight) received either of the inhibitors (8 animals for each inhibitor concentration of each inhibitor) or were treated with vehicle (50 mM sodium phosphate buffer; pH 7.4) (4 animals). The rats received the inhibitors or vehicle by subcutaneous injection into the fat tissue of the neck using a 27-G needle. Blood samples (100 μl) for DPP4 activity measurements were drawn from the tail vein before injection and at the end of the experiment 1 h after injection of the DPP4 inhibitors. At this point, the rats were anaesthetised using a mixture of ketamin (9 mg/100 g body weight) and rompun (0.2 mg/100 g body weight). Additionally, rats received a short burst of ether for quick anaesthesia. The thorax was opened immediately and 4 to 6 ml of blood taken from the right ventricle into ethylenediaminetetraacetic acid (EDTA) laminated syringes and transferred into a 15 ml tube filled with EDTA at a final concentration of 2.5 mg/ml.
Rat blood samples were consecutively centrifuged at room temperature for 10 min at 2000×g and for 15 min at 2500×g. The resulting platelet poor plasma was stored at −80° C. until analysis. For reduction of the protein load of the plasma, the plasma sample was diluted 1:4 with 8 M guanidinium chloride solution at room temperature and for quality control purposes a peptide standard mix was added resulting in a final concentration of 300 to 800 pM of each individual standard peptide added. The peptides added were: substance P, somatostatin-14, neurotensin, renin substrate (porcine), adrenocorticotropic hormone (ACTH)(1-17), big endothelin-1(19-38), ACTH(18-39), beta-Endorphin(6-31), adrenocorticotropic hormone(1-24), calcitonin (human), insulin B chain oxide (bovine), ACTH(7-38), pro34-neuropeptide Y (porcine) and growth hormone-releasing factor (GRF)(1-44). All Peptides or proteins represent the human sequence, if not indicated to the contrary and the numbers in brackets following some of the peptides indicate the amino acid positions of the complete sequence including said peptide. Prior to use, the ultrafiltration devices are rinsed with distilled water. Ultrafiltration was done using Amicon Ultra filter devices with a molecular weight cut-off of 50 kDa (Millipore, Bedford, USA), which were centrifuged according to the manufacturer's instructions at 4000×g for 60 min at room temperature in a swinging bucket rotor. Finally, the pH of the filtrate was adjusted to pH 2 to 3 using concentrated HCl (30% v/v). If the sample (filtrate) was not directly further processed, it was stored at −80° C. A 750 μl-equivalent of plasma was used per chromatographic run.
The separation of peptides and/or proteins was done using a Source 5RPC, 4,6×150 mm reverse phase chromatography column (Amersham Biosciences Europe GmbH, Freiburg, Germany). Buffer A was 0.06% (v/v) (volume per volume) trifluoroacetic acid (TFA) in distilled water and buffer B was 0.05% (v/v) TFA, 80% (v/v) acetonitrile in distilled water. The chromatography took place at 33° C. using a HP 1100 HPLC with a micro flow cell both supplied by Agilent Technologies, Böblingen, Germany. The samples were diluted to 5.5 ml using a 0.1% (v/v) stock solution of trifluoroacetic acid. Prior to chromatography, the samples were centrifuged at 4° C. and 15 000×g for 10 minutes and finally 5 ml of sample were loaded onto the chromatography column representing an equivalent of 750 μl plasma. […]

[4] = with DPP4 activity in presence of AB (AB192 inhibitor)
[5] = with concentration of AB and Contr.In.
[6] = with concentration of AB (AB192 inhibitor)

T1 sequence (P14740 whole entry): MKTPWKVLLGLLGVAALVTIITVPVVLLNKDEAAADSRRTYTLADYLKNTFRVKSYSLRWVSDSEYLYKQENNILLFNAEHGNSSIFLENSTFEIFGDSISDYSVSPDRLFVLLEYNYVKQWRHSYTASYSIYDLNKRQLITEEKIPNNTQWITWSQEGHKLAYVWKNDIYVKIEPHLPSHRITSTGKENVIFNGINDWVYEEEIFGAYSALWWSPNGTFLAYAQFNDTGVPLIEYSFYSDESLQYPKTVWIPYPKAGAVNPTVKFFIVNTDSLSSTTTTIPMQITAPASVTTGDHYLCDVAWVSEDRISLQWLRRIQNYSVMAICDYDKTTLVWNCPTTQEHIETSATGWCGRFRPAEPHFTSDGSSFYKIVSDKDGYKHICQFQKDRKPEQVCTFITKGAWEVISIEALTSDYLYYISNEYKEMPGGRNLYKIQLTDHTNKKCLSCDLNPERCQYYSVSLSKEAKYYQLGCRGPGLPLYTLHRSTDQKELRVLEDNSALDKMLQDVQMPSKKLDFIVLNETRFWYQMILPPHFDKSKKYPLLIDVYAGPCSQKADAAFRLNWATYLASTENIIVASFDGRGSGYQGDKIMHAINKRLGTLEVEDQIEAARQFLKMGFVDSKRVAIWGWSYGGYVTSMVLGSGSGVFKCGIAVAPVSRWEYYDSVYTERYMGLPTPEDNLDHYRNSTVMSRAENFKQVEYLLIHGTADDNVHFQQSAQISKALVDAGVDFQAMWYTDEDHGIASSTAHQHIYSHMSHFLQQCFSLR

CC(=O)Nc1ccc(OP(=O)(Oc2ccc(NC(C)=O)cc2)C2CCCN2C(=O)[C@@H]2CCCN2)cc1 (stereo partly drawn) [AB192, bis(4-acetamidophenyl)-1-(S)-prolylpyrrolidine-2-(R,S)-phosphonate]
DPP4 activity in plasma [1]: inhibited the activity of DPP4 in vivo in rats in a dose dependent manner; also recorded: inhibit DPP4 activity in vivo in a dose-dependent manner

GAPGQNGEPGAKGERGAPGEKGEGGPPG [Peptide/Protein No. 45]
Correlation coefficient of Panel 1 + 2 [2, 4]: 0.54 | Correlation coefficient of Pep./Prot. 1 [2, 4]: −0.38 | Correlation coefficient of Pep./Prot. 2 [2, 4]: −0.4 | Correlation of mass spectrometric signal with DPP4 inhibition by Contr.In. F ([3]; Spearman, before/after change in DPP4 activity with control inhibitor, but not AB192, n=31, |r|>0.61, rat plasma): neg. | correlation of mass spectrometric signal with the DPP4 activity measured in the same samples ([3]; plasma of rats treated with control inhibitor (Contr.In.), FIG. 3A, 4B): negatively

LPGPPGERGGPGSRGFPGADGVAGP [Peptide/Protein No. 2]
Correlation coefficient of Panel 1 + 2 [2, 5]: 0.59 | Correlation coefficient of Pep./Prot. 1 [2, 5]: −0.52 | Correlation coefficient of Pep./Prot. 2 [2, 5]: −0.52 | Correlation of mass spectrometric signal with concentration of inhibitor AB & Contr.In. A ([3]; Spearman, correlates with concentration of AB192 and of control inhibitor, n=49, |r|>0.5, rat plasma 1 h after s.c. injection): pos. | correlation of mass spectrometric signal with the amount of the DPP4 inhibitor AB192 or the control inhibitor given to the rat ([3]; rat plasma, FIG. 3B): positively

PPGPPGPPGPPGPPS [Peptide/Protein No. 3]
Correlation coefficient of Panel 1 + 2 [2, 6]: 0.66 | Correlation coefficient of Pep./Prot. 1 [2, 6]: −0.44 | Correlation coefficient of Pep./Prot. 2 [2, 6]: 0.48 | Correlation of mass spectrometric signal with concentration of inhibitor Contr.In. C ([3]; Spearman, concentration of control inhibitor, but not of AB192, n=27, |r|>0.61, rat plasma): pos. | correlation of mass spectrometric signal with the amount of control inhibitor (Contr.In.) given to the rat ([3]; rat plasma, FIG. 4A): positively
